# Experimental data as given in US9718828B2 (MERCK SHARP & DOHME CORP., priority 2011, dated 2017).
# Like-named read-outs stand apart in the source and are kept apart here.
# Biological target: hBTK (full-length BTK, 6HIS-tag cleaved) (Homo sapiens (Human), UniProt Q06187)
# Experiment: BTK enzymatic activity, LANCE TR-FRET assay (Assay Method C)
# Format: biochemical
# Conditions: 50 pM hBTK, 25 μM ATP
# [1] = LANCE TR-FRET, class 100-1000 is given as ≧100 nM-<1 μM, read-out: IC50 Btk activity values - Assay Method C
# [2] = Table D, Assay Method C (LANCE TR-FRET), read-out: IC50 BTK activity value
# Chain of hBTK (full-length BTK, 6HIS-tag cleaved) (Q06187 whole entry): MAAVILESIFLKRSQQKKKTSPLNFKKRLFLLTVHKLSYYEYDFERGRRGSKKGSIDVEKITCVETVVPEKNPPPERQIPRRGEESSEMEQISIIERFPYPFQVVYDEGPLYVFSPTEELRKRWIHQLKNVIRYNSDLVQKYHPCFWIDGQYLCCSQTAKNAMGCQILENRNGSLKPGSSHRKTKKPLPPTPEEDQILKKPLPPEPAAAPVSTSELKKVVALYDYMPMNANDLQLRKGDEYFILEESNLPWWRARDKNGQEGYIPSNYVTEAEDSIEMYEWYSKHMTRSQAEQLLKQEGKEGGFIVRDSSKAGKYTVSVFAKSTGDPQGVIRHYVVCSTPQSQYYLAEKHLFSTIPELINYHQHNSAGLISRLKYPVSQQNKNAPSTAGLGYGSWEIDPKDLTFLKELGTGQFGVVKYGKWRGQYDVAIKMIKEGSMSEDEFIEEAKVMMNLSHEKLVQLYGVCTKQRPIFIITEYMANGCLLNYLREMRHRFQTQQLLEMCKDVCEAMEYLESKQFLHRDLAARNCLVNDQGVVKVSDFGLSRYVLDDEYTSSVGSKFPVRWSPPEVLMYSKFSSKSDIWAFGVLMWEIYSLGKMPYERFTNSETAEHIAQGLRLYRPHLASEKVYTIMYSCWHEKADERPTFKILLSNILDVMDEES
SMILES,IC50 [1],IC50 [2]
"Nc1nccn2c([C@H]3CC[C@@H](CO)N(C(=O)C4CC4)C3)nc(-c3ccc(C(=O)Nc4cc(C(F)(F)F)ccn4)cc3)c12 [Example 419, 4-{8-amino-3-[(3S,6S)-1-(cyclopropylcarbonyl)-6-(hydroxymethyl)piperidin-3-yl]imidazo[1,5-a]pyrazin-1-yl}-N-[4-(trifluoromethyl)pyridin-2-yl]benzamide]",< 10 nM,
"Nc1nccn2c([C@H]3CC[C@H](C(F)(F)F)N(C(=O)C4CC4)C3)nc(-c3ccc(C(=O)Nc4cc(F)ccn4)cc3)c12 [Example 424, 4-{8-amino-3-[(3S,6R)-1-(cyclopropylcarbonyl)-6-(trifluoromethyl)piperidin-3-yl]imidazo[1,5-a]pyrazin-1-yl}-N-(4-fluoropyridin-2-yl)benzamide]",< 10 nM,
"Cc1ccnc(NC(=O)c2ccc(-c3nc([C@H]4CC[C@H](C(F)(F)F)N(C(=O)C5CC5)C4)n4ccnc(N)c34)cc2)c1 [Example 425, 4-{8-amino-3-[(3S,6R)-1-(cyclopropylcarbonyl)-6-(trifluoromethyl)piperidin-3-yl]imidazo[1,5-a]pyrazin-1-yl}-N-(4-methylpyridin-2-yl)benzamide]",< 10 nM,
"CN(C)C(=O)N1C[C@@H](c2nc(-c3ccc(C(=O)Nc4cc(C(F)(F)F)ccn4)cc3)c3c(N)nccn23)CC[C@@H]1C(F)(F)F [Example 426, (2R,5S)-5-[8-amino-1-(4-{[4-(trifluoromethyl)pyridin-2-yl]carbamoyl}phenyl)imidazo[1,5-a]pyrazin-3-yl]-N,N-dimethyl-2-(trifluoromethyl)piperidine-1-carboxamide]",< 10 nM,
"CC(=O)N1C[C@@H](c2nc(-c3ccc(C(=O)Nc4cc(C(F)(F)F)ccn4)cc3)c3c(N)nccn23)CC[C@@H]1C(F)(F)F [Example 427, 4-{3-[(3S,6R)-1-acetyl-6-(trifluoromethyl)piperidin-3-yl]-8-aminoimidazo[1,5-a]pyrazin-1-yl}-N-[4-(trifluoromethyl)pyridin-2-yl]benzamide]",< 10 nM,
"COC(=O)N1C[C@@H](c2nc(-c3ccc(C(=O)Nc4cc(C(F)(F)F)ccn4)cc3)c3c(N)nccn23)CC[C@@H]1C(F)(F)F [Example 430, methyl (2R,5S)-5-[8-amino-1-(4-{[4-(trifluoromethyl)pyridin-2-yl]carbamoyl}phenyl)imidazo[1,5-a]pyrazin-3-yl]-2-(trifluoromethyl)piperidine-1-carboxylate]",< 10 nM,
"C[C@H]1CC[C@@H](c2nc(-c3ccc(C(=O)Nc4cc(C(F)F)ccn4)cc3F)c3c(N)nccn23)CN1C(=O)C1(C)COC1 [Example 434, 4-(8-amino-3-{(3R,6S)-6-methyl-1-[(3-methyloxetan-3-yl)carbonyl]piperidin-3-yl}imidazo[1,5-a]pyrazin-1-yl)-N-[4-(difluoromethyl)pyridin-2-yl]-3-fluorobenzamide]",< 10 nM,
"CC(=O)N1C[C@H](c2nc(-c3ccc(C(=O)Nc4cc(C(F)F)ccn4)cc3F)c3c(N)nccn23)CC[C@@H]1C [Example 435, 4-{3-[(3R,6S)-1-acetyl-6-methylpiperidin-3-yl]-8-aminoimidazo[1,5-a]pyrazin-1-yl}-N-[4-(difluoromethyl)pyridin-2-yl]-3-fluorobenzamide]",< 10 nM,
"C[C@H]1CC[C@@H](c2nc(-c3ccc(C(=O)Nc4cc(C(F)F)ccn4)cc3F)c3c(N)nccn23)CN1C(=O)C1CC1 [Example 436, 4-{8-amino-3-[(3R,6S)-1-(cyclopropylcarbonyl)-6-methylpiperidin-3-yl]imidazo[1,5-a]pyrazin-1-yl}-N-[4-(difluoromethyl)pyridin-2-yl]-3-fluorobenzamide]",< 10 nM,0.479 nM
"Nc1nccn2c([C@H]3CC[C@H](C(F)(F)F)N(CCO)C3)nc(-c3ccc(C(=O)Nc4cc(C(F)(F)F)ccn4)cc3)c12 [Example 437, 4-{8-amino-3-[(3S,6R)-1-(2-hydroxyethyl)-6-(trifluoromethyl)piperidin-3-yl]imidazo[1,5-a]pyrazin-1-yl}-N-[4-(trifluoromethyl)pyridin-2-yl]benzamide]",< 10 nM,
"CC1(C(=O)N2CCC[C@@](C)(c3nc(-c4ccc(C(=O)Nc5cc(C(F)(F)F)ccn5)cc4)c4c(N)nccn34)C2)COC1 [Example 438, 4-(8-amino-3-{(3R)-3-methyl-1-[(3-methyloxetan-3-yl)carbonyl]piperidin-3-yl}imidazo[1,5-a]pyrazin-1-yl)-N-[4-(trifluoromethyl)pyridin-2-yl]benzamide]",< 10 nM,
"CC1(C(=O)N2CCC[C@@](O)(c3nc(-c4ccc(C(=O)Nc5cc(C(F)(F)F)ccn5)cc4)c4c(N)nccn34)C2)COC1 [Example 439, 4-(8-amino-3-{(3S)-3-hydroxy-1-[(3-methyloxetan-3-yl)carbonyl]piperidin-3-yl}imidazo[1,5-a]pyrazin-1-yl)-N-[4-(trifluoromethyl)pyridin-2-yl]benzamide]",< 10 nM,

# Continued, values first:
IC50 [1],IC50 [2],SMILES
< 10 nM,0.167 nM,"C[C@H]1CC[C@@H](c2nc(-c3ccc(C(=O)Nc4cc(C(F)(F)F)ccn4)cc3)c3c(N)nccn23)CN1C(=O)C1(C)COC1 [Example 393, 4-(8-amino-3-{(3R,6S)-6-methyl-1-[(3-methyloxetan-3-yl)carbonyl]piperidin-3-yl}imidazo[1,5-a]pyrazin-1-yl)-N-[4-(trifluoromethyl)pyridin-2-yl]benzamide]"
< 10 nM,,"Nc1nccn2c(C3CCC(C(F)(F)F)N(C(=O)C4CC4)C3)nc(-c3ccc(C(=O)Nc4cc(C(F)(F)F)ccn4)cc3F)c12 (centres unmarked) [Example 399, 4-{8-amino-3-[1-(cyclopropylcarbonyl)-6-(trifluoromethyl)piperidin-3-yl]imidazo[1,5-a]pyrazin-1-yl}-3-fluoro-N-[4-(trifluoromethyl)pyridin-2-yl]benzamide]"
< 10 nM,0.96 nM,"C[C@H]1CC[C@@H](c2nc(-c3ccc(C(=O)Nc4cc(C(F)(F)F)ccn4)c(Cl)c3)c3c(N)nccn23)CN1C(=O)C1(C)COC1 [Example 400, 4-(8-amino-3-{(3R,6S)-6-methyl-1-[(3-methyloxetan-3-yl)carbonyl]piperidin-3-yl}imidazo[1,5-a]pyrazin-1-yl)-2-chloro-N-[4-(trifluoromethyl)pyridin-2-yl]benzamide]"
< 10 nM,,"CCN1C[C@@H](c2nc(-c3ccc(C(=O)Nc4ccccn4)cc3)c3c(N)nccn23)CC[C@@H]1C(F)(F)F [Example 408, 4-{8-amino-3-[(3S,6R)-1-ethyl-6-(trifluoromethyl)piperidin-3-yl]imidazo[1,5-a]pyrazin-1-yl}-N-pyridin-2-ylbenzamide]"
< 10 nM,,"C[C@H]1CC[C@@H](c2nc(-c3ccc(C(=O)Nc4cc(OC5CC5)ccn4)cc3)c3c(N)nccn23)CN1C(=O)C1(C)COC1 [Example 409, 4-(8-amino-3-{(3R,6S)-6-methyl-1-[(3-methyloxetan-3-yl)carbonyl]piperidin-3-yl}imidazo[1,5-a]pyrazin-1-yl)-N-[4-(cyclopropyloxy)pyridin-2-yl]benzamide]"
< 10 nM,,"CN1C[C@@H](c2nc(-c3ccc(C(=O)Nc4cc(C(F)(F)F)ccn4)cc3)c3c(N)nccn23)CC[C@@H]1C(F)(F)F [Example 410, 4-{8-amino-3-[(3S,6R)-1-methyl-6-(trifluoromethyl)piperidin-3-yl]imidazo[1,5-a]pyrazin-1-yl}-N-[4-(trifluoromethyl)pyridin-2-yl]benzamide]"
< 10 nM,,"CN1C[C@@H](c2nc(-c3ccc(C(=O)Nc4cc(C(F)(F)F)ccn4)cc3F)c3c(N)nccn23)CC[C@@H]1C(F)(F)F [Example 411, 4-{8-amino-3-[(3S,6R)-1-methyl-6-(trifluoromethyl)piperidin-3-yl]imidazo[1,5-a]pyrazin-1-yl}-3-fluoro-N-[4-(trifluoromethyl)pyridin-2-yl]benzamide]"
< 10 nM,,"CNC(=O)N1C[C@@H](c2nc(-c3ccc(C(=O)Nc4cc(C(F)(F)F)ccn4)cc3)c3c(N)nccn23)CC[C@@H]1C(F)(F)F [Example 412, (2R,5S)-5-[8-amino-1-(4-{[4-(trifluoromethyl)pyridin-2-yl]carbamoyl}phenyl)imidazo[1,5-a]pyrazin-3-yl]-N-methyl-2-(trifluoromethyl)piperidine-1-carboxamide]"
< 10 nM,0.2 nM,"C[C@H]1CC[C@@H](c2nc(-c3ccc(C(=O)Nc4cc(C(C)(F)F)ccn4)cc3)c3c(N)nccn23)CN1C(=O)C1(C)COC1 [Example 413, 4-(8-amino-3-{(3R,6S)-6-methyl-1-[(3-methyloxetan-3-yl)carbonyl]piperidin-3-yl}imidazo[1,5-a]pyrazin-1-yl)-N-[4-(1,1-difluoroethyl)pyridin-2-yl]benzamide]"
< 10 nM,,"CN1C[C@@H](c2nc(-c3ccc(C(=O)Nc4cc(C(F)(F)F)ccn4)cc3)c3c(N)nccn23)CC[C@H]1C(F)(F)F [Example 414, 4-{8-amino-3-[(3S,6S)-1-methyl-6-(trifluoromethyl)piperidin-3-yl]imidazo[1,5-a]pyrazin-1-yl}-N-[4-(trifluoromethyl)pyridin-2-yl]benzamide]"
< 10 nM,,"CCC(=O)N1C[C@@H](c2nc(-c3ccc(C(=O)Nc4cc(C(F)(F)F)ccn4)cc3)c3c(N)nccn23)CC[C@@H]1C(F)(F)F [Example 415, 4-{8-amino-3-[(3S,6R)-1-propanoyl-6-(trifluoromethyl)piperidin-3-yl]imidazo[1,5-a]pyrazin-1-yl}-N-[4-(trifluoromethyl)pyridin-2-yl]benzamide]"
< 10 nM,,"CC(C)COc1ccnc(NC(=O)c2ccc(-c3nc([C@@H]4CC[C@H](C)N(C(=O)C5(C)COC5)C4)n4ccnc(N)c34)cc2)c1 [Example 417, 4-(8-amino-3-{(3R,6S)-6-methyl-1-[(3-methyloxetan-3-yl)carbonyl]piperidin-3-yl}imidazo[1,5-a]pyrazin-1-yl)-N-[4-(2-methylpropoxy)pyridin-2-yl]benzamide]"
< 10 nM,,"C[C@H]1CC[C@@H](c2nc(-c3ccc(C(=O)Nc4cc(OCC(F)(F)F)ccn4)cc3)c3c(N)nccn23)CN1C(=O)C1(C)COC1 [Example 418, 4-(8-amino-3-{(3R,6S)-6-methyl-1-[(3-methyloxetan-3-yl)carbonyl]piperidin-3-yl}imidazo[1,5-a]pyrazin-1-yl)-N-[4-(2,2,2-trifluoroethoxy)pyridin-2-yl]benzamide]"
